# Test results as given in a melting point compilation (Tetko et al.; mined from patent text by program, amines drawn as free bases though some values may be those of a salt).
row,Compound,melting point [°C]
1,CC(=O)OCCc1ccc(-c2ccc(=O)[nH]n2)cc1,186
2,N#Cc1nn(-c2c(Cl)cc(C(F)(F)F)cc2Cl)c(I)c1SC(F)(F)F,187 to 188
3,Cc1cccc(C2COc3cc(O)c(O)cc3C2)c1 (configuration not stated),146 to 148
4,N#Cc1ccc(N2C(=O)CNC2=O)c2ccccc12,> 275
5,COC(=O)/C=C(C)/C=C/C(F)=C(C)/C=C/c1c(C)sc(C)c1C,126 to 128
6,CC(C)(C)OC(=O)CC[C@H](NC(=O)c1ccc(NCc2ccccc2)c(F)c1)C(=O)OC(C)(C)C,80 to 82
7,CN1CCC(=C2c3ccccc3CC(=O)c3ccccc32)CC1,138 to 140
8,COc1ccc(C)cc1NC(=O)Nc1ccc(N2CCN(C(=O)Nc3ccc(CCO)cc3C)CC2)cc1,119 to 121
9,COCCC(=O)N[C@H]1CC[C@H](CCN2CCC(c3cccc4c3CCO4)CC2)CC1,182
10,CNc1cc(Cl)cc(N)c1[N+](=O)[O-],129
11,CCOC(=O)CCC1CCN(C(=O)[C@H](C)NC(=O)c2ccc(C#N)cc2)CC1,108 to 109
12,O=C(Nc1ccc(-n2nc(C(F)(F)F)cc2C(F)(F)F)cc1)c1ccc(O)cc1,> 245
13,CC12CCC(C(=Cc3ccccc3[N+](=O)[O-])C1=O)C2(C)C (configuration not stated),118
14,O=C(O)c1cnc2ccc(Cl)cc2c1-c1ccccc1,269 to 270
15,N#CC(C(=O)CF)c1cccc(Cl)c1 (configuration not stated),90 to 96
16,N#Cc1cccc(Oc2ncccc2C(=O)NCc2ccc(S(N)(=O)=O)cc2)c1,179 to 180
17,CCCC(Sc1nc2ccccc2[nH]1)C(=O)Nc1c(SC)cc(C)nc1SC (configuration not stated),235 to 237
18,COc1ccc(S(=O)(=O)CC(CS(=O)(=O)c2ccc(OC)cc2)C(=O)NO)cc1,174
19,Cc1oc2c(-c3ccc(F)cc3)c(-c3ccc(S(C)(=O)=O)cc3)nn2c1-c1ccccc1,234 to 236
20,COC(=O)C1=C(C)N(CCCc2ccccc2)C(C)=C(C(=O)OC)C1c1ccc(OC)c(OC)c1,97 to 98
21,O=C(O)CCCNC(=O)c1nc(Cl)c(Cl)[nH]1,285
22,CC(=O)NC1CCC2=C(CC1)C(=O)C(=CC(=O)O)C=C2 (configuration not stated),240 to 243
23,CN(C)C=C1CCc2cnccc2C1=O,76 to 79
24,O=[N+]([O-])c1ccc2c(ccn2Cc2ccccc2)c1,102 to 104
25,N#CN(c1ccccc1)S(=O)(=O)c1ccccc1,65 to 66
26,CCOC(=O)NNC(=O)NC1c2ccccc2Oc2ccccc21,188 to 191

row,Compound,melting point [°C]
1,C/C(Cn1oc(=O)[nH]c1=O)=C(\C)c1cccc(OCc2nc(-c3ccc(C(F)(F)F)cc3)oc2C)c1,144 to 145
2,CC(C)(C#N)c1cc(Cc2cccnc2)cc(C(C)(C)C#N)c1,82 to 84
3,O=C1c2cc([N+](=O)[O-])ccc2CC1Br (configuration not stated),102 to 105
4,O=C(O)CCC(=O)C(Cc1ccccc1)NC(=O)c1ccccc1 (configuration not stated),143 to 146
5,CCNS(=O)(=O)c1nc2cc(C(=O)c3ccccc3)ccc2[nH]1,250 to 253
6,CCCCCCCCCCCC(=O)CC(=O)OC,29
7,COc1ccc(OC)c(C(=O)c2cccc(OC)c2C(=O)O)c1,180 to 182
8,NC(=NO)c1ccno1,146 to 148
9,C=CCc1ccc(CCNC(=O)c2cc(Cl)ccc2OC)cc1S(N)(=O)=O,186 to 187
10,CN1C(c2ccc(NS(C)(=O)=O)cc2)NCc2ccccc2C1c1ccccc1 (configuration not stated),124 to 126
11,CCCCN(CC)CC(=O)N1c2ccccc2NC(=O)c2cncnc21,151 to 152
12,CN(C)CC1CN(c2c(F)cc3c(=O)c(C(=O)O)cn(C4CC4)c3c2F)CCO1 (configuration not stated),182 to 183
13,Cc1cc(NS(=O)(=O)c2ccccc2)cc(C)c1SC[N+](=O)[O-],146 to 148
14,COCN(C(=O)Nc1ccc(Cl)cc1)C(=O)c1c(Cl)cccc1Cl,122
15,CCOC(=O)CNC(=O)c1nnc2ccc(Cl)nn12,133 to 134
16,CC1(CCC#N)CCC2OCCOC2CC1=O (configuration not stated),58 to 60
17,CN(CC1(c2ccccc2)CC(O)=CC(=O)O1)c1ccccc1 (configuration not stated),118 to 120
18,CCCCc1nc(C2CCCCC2)n(Cc2ccc(-c3ccccc3-c3ncn[nH]3)cc2)n1,158 to 160
19,CN(C)C=C(C#N)C(=O)c1c[nH]c2ccccc12,187 to 188
20,CCCc1nnc2c(=O)n(C)c3ccc(Cl)cc3n12,265 to 266
21,C[C@H]1[C@H](N(C)C)CN1c1cc2c(cc1F)c(=O)c(C(=O)O)cn2C1CC1 (relative stereo),181 to 185
22,O=C(O)c1ccccc1Sc1c(O)c2c(Cl)cc(Cl)cc2[nH]c1=O,> 300
23,Nc1ncnc2c1c(-c1ccccc1Oc1ccccc1)cn2C1CCCC1,109 to 110
24,CC(S)C(=O)Nc1ccc(C2=NNC(=O)CC2C)cc1 (configuration not stated),236 to 237
25,Cc1cccc(-c2nccc(Cl)n2)c1,74 to 75
26,COc1ccccc1N(CCN1CCC(C(=O)c2ccc(F)cc2)CC1)S(=O)(=O)c1cccnc1,126 to 128
